Data taken from article PMC3399817 (PLoS ONE, 2012).

How the values were obtained:
Experiment in all cases: KINOMEscan
Type in all cases: binding
MAK = biological target: T1, MAK (Homo sapiens, UniProt P20794); conditions: 1 uM
T1 construct: purchased Ambit KINOMEscan (DiscoverX)
Procedure, shortened: (§1)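 Kinases were scored for inhibited substrate binding in the presence of 1 μM compound; this served as the first-pass selectivity screen.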

FYN = biological target: T2, FYN (Homo sapiens, UniProt P06241); conditions: 1 uM
T2 construct: purchased Ambit KINOMEscan (DiscoverX)
Procedure, shortened: as §1

CDC2L2 = biological target: T3, CDC2L2 (Homo sapiens, UniProt Q9UQ88); conditions: CDC2L2, 1 uM
T3 construct: purchased Ambit KINOMEscan (DiscoverX)
T3 sequence (Q9UQ88 whole entry): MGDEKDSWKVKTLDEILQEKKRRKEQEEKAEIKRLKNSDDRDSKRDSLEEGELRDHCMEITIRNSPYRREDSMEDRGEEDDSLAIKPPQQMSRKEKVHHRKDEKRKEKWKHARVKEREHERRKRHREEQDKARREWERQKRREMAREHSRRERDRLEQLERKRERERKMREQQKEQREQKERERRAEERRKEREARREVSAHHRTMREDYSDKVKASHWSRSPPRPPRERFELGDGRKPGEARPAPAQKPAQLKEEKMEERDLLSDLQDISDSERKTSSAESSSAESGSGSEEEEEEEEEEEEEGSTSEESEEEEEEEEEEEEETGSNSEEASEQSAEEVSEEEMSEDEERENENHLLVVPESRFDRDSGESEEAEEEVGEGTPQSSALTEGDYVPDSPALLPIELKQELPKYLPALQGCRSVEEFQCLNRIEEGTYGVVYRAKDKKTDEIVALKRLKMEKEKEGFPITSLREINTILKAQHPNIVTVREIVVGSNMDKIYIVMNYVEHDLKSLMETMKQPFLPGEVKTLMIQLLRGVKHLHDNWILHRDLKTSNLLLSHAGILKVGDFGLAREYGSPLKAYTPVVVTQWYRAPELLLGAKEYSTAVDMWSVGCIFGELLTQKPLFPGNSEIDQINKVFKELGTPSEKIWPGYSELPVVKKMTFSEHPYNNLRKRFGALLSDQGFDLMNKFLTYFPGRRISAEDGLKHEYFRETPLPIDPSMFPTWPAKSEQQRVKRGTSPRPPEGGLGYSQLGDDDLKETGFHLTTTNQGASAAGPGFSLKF
Procedure, shortened: as §1

TGFBR1 = biological target: T4, TGFBR1 (Homo sapiens, UniProt P36897); conditions: TGFBR1, 1 uM
T4 construct: purchased Ambit KINOMEscan (DiscoverX)
Procedure, shortened: as §1

MUSK = biological target: T5, MUSK (Homo sapiens, UniProt O15146); conditions: 1 uM
T5 construct: purchased Ambit KINOMEscan (DiscoverX)
Procedure, shortened: as §1

PIK3CD = biological target: T6, PIK3CD (Homo sapiens, UniProt O00329); conditions: 1 uM
T6 construct: purchased Ambit KINOMEscan (DiscoverX)
T6 sequence (O00329 whole entry): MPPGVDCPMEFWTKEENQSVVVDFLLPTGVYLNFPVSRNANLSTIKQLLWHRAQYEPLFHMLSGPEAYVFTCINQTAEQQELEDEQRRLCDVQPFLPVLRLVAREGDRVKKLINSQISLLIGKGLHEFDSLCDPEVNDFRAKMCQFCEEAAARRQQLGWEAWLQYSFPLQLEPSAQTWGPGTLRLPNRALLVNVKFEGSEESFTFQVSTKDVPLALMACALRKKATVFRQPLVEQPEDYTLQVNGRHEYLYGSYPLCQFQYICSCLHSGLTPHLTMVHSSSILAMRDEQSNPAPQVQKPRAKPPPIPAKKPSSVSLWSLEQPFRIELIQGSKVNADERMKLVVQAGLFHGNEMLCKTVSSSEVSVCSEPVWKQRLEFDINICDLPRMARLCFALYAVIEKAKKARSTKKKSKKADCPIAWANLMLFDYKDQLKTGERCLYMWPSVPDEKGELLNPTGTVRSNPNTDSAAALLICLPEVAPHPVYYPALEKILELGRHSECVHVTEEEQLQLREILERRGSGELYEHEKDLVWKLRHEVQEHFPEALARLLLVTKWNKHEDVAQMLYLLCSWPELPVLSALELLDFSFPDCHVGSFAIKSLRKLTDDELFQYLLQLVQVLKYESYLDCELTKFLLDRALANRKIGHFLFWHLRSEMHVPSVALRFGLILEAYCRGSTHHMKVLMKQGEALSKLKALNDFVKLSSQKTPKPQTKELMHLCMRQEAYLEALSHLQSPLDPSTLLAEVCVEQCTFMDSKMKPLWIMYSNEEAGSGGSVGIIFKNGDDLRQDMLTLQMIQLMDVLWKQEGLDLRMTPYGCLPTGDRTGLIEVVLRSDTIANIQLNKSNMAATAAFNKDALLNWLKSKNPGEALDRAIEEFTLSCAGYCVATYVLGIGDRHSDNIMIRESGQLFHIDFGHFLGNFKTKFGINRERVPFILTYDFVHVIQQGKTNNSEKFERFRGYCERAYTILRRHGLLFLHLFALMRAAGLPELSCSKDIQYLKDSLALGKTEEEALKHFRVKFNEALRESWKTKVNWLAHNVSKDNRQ
Procedure, shortened: as §1

RAF1 = biological target: T7, RAF1 (Homo sapiens, UniProt P04049); conditions: RAF1, 1 uM
T7 construct: purchased Ambit KINOMEscan (DiscoverX)
Procedure, shortened: as §1

HIPK4 = biological target: T8, HIPK4 (Homo sapiens, UniProt Q8NE63); conditions: HIPK4, 1 uM
T8 construct: purchased Ambit KINOMEscan (DiscoverX)
Procedure, shortened: as §1

PAK4 = biological target: T9, PAK4 (Homo sapiens, UniProt O96013); conditions: PAK4, 1 uM
T9 construct: purchased Ambit KINOMEscan (DiscoverX)
Procedure, shortened: as §1

NEK9 = biological target: T10, NEK9 (Homo sapiens, UniProt Q8TD19); conditions: NEK9, 1 uM
T10 construct: purchased Ambit KINOMEscan (DiscoverX)
Procedure, shortened: as §1

PDPK1 = biological target: T11, PDPK1 (Homo sapiens, UniProt O15530); conditions: PDPK1, 1 uM
T11 construct: purchased Ambit KINOMEscan (DiscoverX)
Procedure, shortened: as §1

FES = biological target: T12, FES (Homo sapiens, UniProt P07332); conditions: 1 uM
T12 construct: purchased Ambit KINOMEscan (DiscoverX)
T12 sequence (P07332 whole entry): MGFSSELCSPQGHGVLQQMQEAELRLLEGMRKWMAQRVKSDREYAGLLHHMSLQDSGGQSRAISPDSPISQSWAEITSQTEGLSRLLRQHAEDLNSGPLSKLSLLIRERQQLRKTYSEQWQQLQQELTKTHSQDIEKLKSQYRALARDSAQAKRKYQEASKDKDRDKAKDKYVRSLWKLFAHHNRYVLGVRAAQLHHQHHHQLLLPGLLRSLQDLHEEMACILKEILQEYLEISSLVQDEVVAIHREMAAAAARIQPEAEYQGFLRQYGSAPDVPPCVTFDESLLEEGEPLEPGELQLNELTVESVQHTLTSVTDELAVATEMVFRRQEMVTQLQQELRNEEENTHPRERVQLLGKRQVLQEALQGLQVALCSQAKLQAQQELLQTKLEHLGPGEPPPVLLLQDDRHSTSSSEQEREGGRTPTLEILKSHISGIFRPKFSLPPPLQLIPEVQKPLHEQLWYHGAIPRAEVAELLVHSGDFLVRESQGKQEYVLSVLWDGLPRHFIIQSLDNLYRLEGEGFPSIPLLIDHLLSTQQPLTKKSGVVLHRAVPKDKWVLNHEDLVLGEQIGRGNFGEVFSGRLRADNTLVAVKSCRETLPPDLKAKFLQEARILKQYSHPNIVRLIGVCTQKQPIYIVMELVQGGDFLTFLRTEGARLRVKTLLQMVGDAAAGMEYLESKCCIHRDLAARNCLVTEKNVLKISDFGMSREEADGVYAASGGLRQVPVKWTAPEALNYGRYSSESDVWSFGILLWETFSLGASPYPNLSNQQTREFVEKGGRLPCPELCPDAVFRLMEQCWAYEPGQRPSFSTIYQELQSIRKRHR
Procedure, shortened: as §1

PRKG1 = biological target: T13, PRKG1 (Homo sapiens, UniProt Q13976); conditions: PRKG1, 1 uM
T13 construct: purchased Ambit KINOMEscan (DiscoverX)
Procedure, shortened: as §1

[1] = biological target: T14, RPS6KA6(Kin.Dom.2-C-terminal) (Homo sapiens, UniProt Q9UK32); conditions: 1 uM
T14 construct: RPS6KA6(Kin.Dom.2-C-terminal); purchased Ambit KINOMEscan (DiscoverX)
Procedure, shortened: as §1

PHKG1 = biological target: T15, PHKG1 (Homo sapiens, UniProt Q16816); conditions: PHKG1, 1 uM
T15 construct: purchased Ambit KINOMEscan (DiscoverX)
Procedure, shortened: as §1

BRSK2 = biological target: T16, BRSK2 (Homo sapiens, UniProt Q8IWQ3); conditions: BRSK2, 1 uM
T16 construct: purchased Ambit KINOMEscan (DiscoverX)
Procedure, shortened: as §1

ACVR1 = biological target: T17, ACVR1 (Homo sapiens, UniProt Q04771); conditions: ACVR1, 1 uM
T17 construct: purchased Ambit KINOMEscan (DiscoverX)
Procedure, shortened: as §1

STK39 = biological target: T18, STK39 (Homo sapiens, UniProt Q9UEW8); conditions: STK39, 1 uM
T18 construct: purchased Ambit KINOMEscan (DiscoverX)
Procedure, shortened: as §1

MEK3 = biological target: T19, MEK3 (Homo sapiens, UniProt P46734); conditions: MEK3, 1 uM
T19 construct: purchased Ambit KINOMEscan (DiscoverX)
Procedure, shortened: as §1

EPHB4 = biological target: T20, EPHB4 (Homo sapiens, UniProt P54760); conditions: EPHB4, 1 uM
T20 construct: purchased Ambit KINOMEscan (DiscoverX)
Procedure, shortened: as §1

PIK3CG = biological target: T21, PIK3CG (Homo sapiens, UniProt P48736); conditions: 1 uM
T21 construct: purchased Ambit KINOMEscan (DiscoverX)
Procedure, shortened: as §1

SBK1 = biological target: T22, SBK1 (Homo sapiens, UniProt Q52WX2); conditions: SBK1, 1 uM
T22 construct: purchased Ambit KINOMEscan (DiscoverX)
Procedure, shortened: as §1

RIOK1 = biological target: T23, RIOK1 (Homo sapiens, UniProt Q9BRS2); conditions: RIOK1, 1 uM
T23 construct: purchased Ambit KINOMEscan (DiscoverX)
Procedure, shortened: as §1

EPHB6 = biological target: T24, EPHB6 (Homo sapiens, UniProt O15197); conditions: EPHB6, 1 uM
T24 construct: purchased Ambit KINOMEscan (DiscoverX)
Procedure, shortened: as §1

ULK1 = biological target: T25, ULK1 (Homo sapiens, UniProt O75385); conditions: ULK1, 1 uM
T25 construct: purchased Ambit KINOMEscan (DiscoverX)
Procedure, shortened: as §1

ARK5 = biological target: T26, ARK5 (Homo sapiens, UniProt O60285); conditions: ARK5, 1 uM
T26 construct: purchased Ambit KINOMEscan (DiscoverX)
Procedure, shortened: as §1

CAMK1D = biological target: T27, CAMK1D (Homo sapiens, UniProt Q8IU85); conditions: 1 uM
T27 construct: purchased Ambit KINOMEscan (DiscoverX)
T27 sequence (Q8IU85 whole entry): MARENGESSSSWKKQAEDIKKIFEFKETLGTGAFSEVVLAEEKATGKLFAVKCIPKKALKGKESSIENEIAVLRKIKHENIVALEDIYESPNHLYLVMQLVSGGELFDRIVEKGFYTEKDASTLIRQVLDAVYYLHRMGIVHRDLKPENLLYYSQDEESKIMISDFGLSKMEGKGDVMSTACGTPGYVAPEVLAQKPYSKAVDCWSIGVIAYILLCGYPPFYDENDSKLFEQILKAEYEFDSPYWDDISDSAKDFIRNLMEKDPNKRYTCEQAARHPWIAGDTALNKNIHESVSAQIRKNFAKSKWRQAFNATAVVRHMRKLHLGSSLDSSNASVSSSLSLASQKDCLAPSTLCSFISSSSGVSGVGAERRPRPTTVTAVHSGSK
Procedure, shortened: as §1

ASK1 = biological target: T28, ASK1 (Homo sapiens, UniProt Q99683); conditions: ASK1, 1 uM
T28 construct: purchased Ambit KINOMEscan (DiscoverX)
Procedure, shortened: as §1

p38-alpha = biological target: T29, p38-alpha (Homo sapiens, UniProt Q16539); conditions: 1 uM
T29 construct: purchased Ambit KINOMEscan (DiscoverX)
Procedure, shortened: as §1

PIK3CA(M1043I) = biological target: T30, PIK3CA(M1043I) (Homo sapiens, UniProt P42336, M1043I); conditions: 1 uM
T30 construct: purchased Ambit KINOMEscan (DiscoverX)
Procedure, shortened: as §1

MELK = biological target: T31, MELK (Homo sapiens, UniProt Q14680); conditions: 1 uM
T31 construct: purchased Ambit KINOMEscan (DiscoverX)
Procedure, shortened: as §1

ERBB4 = biological target: T32, ERBB4 (Homo sapiens, UniProt Q15303); conditions: ERBB4, 1 uM
T32 construct: purchased Ambit KINOMEscan (DiscoverX)
T32 sequence (Q15303 26-1308): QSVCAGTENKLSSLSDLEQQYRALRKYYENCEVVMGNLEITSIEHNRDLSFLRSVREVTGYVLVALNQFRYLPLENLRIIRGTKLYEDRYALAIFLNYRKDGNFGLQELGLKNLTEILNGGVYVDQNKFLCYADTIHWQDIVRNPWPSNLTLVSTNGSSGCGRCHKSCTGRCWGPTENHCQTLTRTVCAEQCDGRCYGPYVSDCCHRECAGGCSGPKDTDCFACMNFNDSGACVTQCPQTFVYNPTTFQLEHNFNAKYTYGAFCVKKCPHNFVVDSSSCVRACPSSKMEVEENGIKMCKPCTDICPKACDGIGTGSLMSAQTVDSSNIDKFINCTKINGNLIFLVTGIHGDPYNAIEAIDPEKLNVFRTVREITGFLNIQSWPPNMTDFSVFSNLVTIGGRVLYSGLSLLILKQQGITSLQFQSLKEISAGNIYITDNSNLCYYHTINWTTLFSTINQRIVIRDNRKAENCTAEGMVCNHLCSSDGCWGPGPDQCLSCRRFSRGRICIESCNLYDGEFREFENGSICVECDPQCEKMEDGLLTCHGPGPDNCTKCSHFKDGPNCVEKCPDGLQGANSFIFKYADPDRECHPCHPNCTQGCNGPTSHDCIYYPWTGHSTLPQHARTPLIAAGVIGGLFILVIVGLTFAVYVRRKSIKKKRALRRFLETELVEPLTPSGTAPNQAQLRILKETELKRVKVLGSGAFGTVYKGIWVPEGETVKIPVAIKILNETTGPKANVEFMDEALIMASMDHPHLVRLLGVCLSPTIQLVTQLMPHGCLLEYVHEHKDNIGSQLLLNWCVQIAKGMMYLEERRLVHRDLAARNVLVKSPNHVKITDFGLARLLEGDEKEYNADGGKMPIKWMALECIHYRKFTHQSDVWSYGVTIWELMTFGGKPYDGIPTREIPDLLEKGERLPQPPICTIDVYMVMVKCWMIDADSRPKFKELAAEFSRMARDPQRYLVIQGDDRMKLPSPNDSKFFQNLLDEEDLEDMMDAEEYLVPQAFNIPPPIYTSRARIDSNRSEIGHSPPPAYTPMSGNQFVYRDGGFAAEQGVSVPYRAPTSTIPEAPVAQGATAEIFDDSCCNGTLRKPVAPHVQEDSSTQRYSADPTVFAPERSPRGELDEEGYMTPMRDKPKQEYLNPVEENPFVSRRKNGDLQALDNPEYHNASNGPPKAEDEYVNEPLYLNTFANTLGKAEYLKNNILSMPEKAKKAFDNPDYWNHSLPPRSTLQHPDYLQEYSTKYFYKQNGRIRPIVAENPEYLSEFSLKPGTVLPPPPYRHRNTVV
Procedure, shortened: as §1

BTK = biological target: T33, BTK (Homo sapiens, UniProt Q06187); conditions: 1 uM
T33 construct: purchased Ambit KINOMEscan (DiscoverX)
Procedure, shortened: as §1

PRKG2 = biological target: T34, PRKG2 (Homo sapiens, UniProt Q13237); conditions: PRKG2, 1 uM
T34 construct: purchased Ambit KINOMEscan (DiscoverX)
Procedure, shortened: as §1

PRKCH = biological target: T35, PRKCH (Homo sapiens, UniProt P24723); conditions: 1 uM
T35 construct: purchased Ambit KINOMEscan (DiscoverX)
Procedure, shortened: as §1

PAK7 = biological target: T36, PAK7 (Homo sapiens, UniProt Q9P286); conditions: PAK7, 1 uM
T36 construct: purchased Ambit KINOMEscan (DiscoverX)
Procedure, shortened: as §1

TNK1 = biological target: T37, TNK1 (Homo sapiens, UniProt Q13470); conditions: TNK1, 1 uM
T37 construct: purchased Ambit KINOMEscan (DiscoverX)
T37 sequence (Q13470 whole entry): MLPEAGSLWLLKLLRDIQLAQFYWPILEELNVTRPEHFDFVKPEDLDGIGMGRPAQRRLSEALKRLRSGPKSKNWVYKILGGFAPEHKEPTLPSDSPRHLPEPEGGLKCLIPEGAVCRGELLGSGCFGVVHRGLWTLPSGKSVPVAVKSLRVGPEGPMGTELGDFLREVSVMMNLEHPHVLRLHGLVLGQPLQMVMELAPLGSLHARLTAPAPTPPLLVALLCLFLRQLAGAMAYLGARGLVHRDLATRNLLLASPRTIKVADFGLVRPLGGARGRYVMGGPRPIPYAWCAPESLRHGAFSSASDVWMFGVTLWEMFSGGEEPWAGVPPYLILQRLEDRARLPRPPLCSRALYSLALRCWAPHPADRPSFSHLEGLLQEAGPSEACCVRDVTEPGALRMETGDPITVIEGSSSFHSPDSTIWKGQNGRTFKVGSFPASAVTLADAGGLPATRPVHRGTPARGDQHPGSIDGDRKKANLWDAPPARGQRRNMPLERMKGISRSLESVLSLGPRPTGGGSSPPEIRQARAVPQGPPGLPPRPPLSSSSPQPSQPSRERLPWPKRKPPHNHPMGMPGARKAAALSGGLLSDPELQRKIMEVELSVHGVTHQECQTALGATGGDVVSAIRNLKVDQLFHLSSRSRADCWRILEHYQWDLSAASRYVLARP
Procedure, shortened: as §1

[2] = biological target: T38, TYK2(JH2domain-pseudokinase) (Homo sapiens, UniProt P29597); conditions: 1 uM
T38 construct: TYK2(JH2domain-pseudokinase); purchased Ambit KINOMEscan (DiscoverX)
Procedure, shortened: as §1

CSNK2A2 = biological target: T39, CSNK2A2 (Homo sapiens, UniProt P19784); conditions: CSNK2A2, 1 uM
T39 construct: purchased Ambit KINOMEscan (DiscoverX)
Procedure, shortened: as §1

Row | SMILES | % binding compared to no inhibitor control (MAK) | % binding compared to no inhibitor control (FYN) | % binding compared to no inhibitor control (CDC2L2) | % binding compared to no inhibitor control (TGFBR1) | % binding compared to no inhibitor control (MUSK) | % binding compared to no inhibitor control (PIK3CD) | % binding compared to no inhibitor control (RAF1) | % binding compared to no inhibitor control (HIPK4) | % binding compared to no inhibitor control (PAK4) | % binding compared to no inhibitor control (NEK9) | % binding compared to no inhibitor control (PDPK1) | % binding compared to no inhibitor control (FES) | % binding compared to no inhibitor control (PRKG1) | % binding compared to no inhibitor control [1] | % binding compared to no inhibitor control (PHKG1) | % binding compared to no inhibitor control (BRSK2) | % binding compared to no inhibitor control (ACVR1) | % binding compared to no inhibitor control (STK39) | % binding compared to no inhibitor control (MEK3) | % binding compared to no inhibitor control (EPHB4) | other results
1 | COc1ccc(-c2cc3nccn3c(Nc3ncccc3C(N)=O)n2)cc1OC.Cl.Cl [BAY61-3606, 2-[7-(3,4-dimethoxyphenyl)-imidazo [1,2-c]pyrimidin-5-ylamino] nicotinamide dihydrochloride, reference compound] | 68% | 100% | 100% | 99% | 76% | 81% | 81% | 29% | 85% | 90% | 99% | 88% | 70% | 79% | 79% | 84% | 78% | 46% | 21% | 86% | % binding compared to no inhibitor control (PIK3CG): 26%; % binding compared to no inhibitor control (SBK1): 96%; % binding compared to no inhibitor control (RIOK1): 31%; % binding compared to no inhibitor control (EPHB6): 17%; % binding compared to no inhibitor control (ULK1): 97%; % binding compared to no inhibitor control (ARK5): 62%; % binding compared to no inhibitor control (CAMK1D): 72%; % binding compared to no inhibitor control (ASK1): 100%; % binding compared to no inhibitor control (p38-alpha): 100%; % binding compared to no inhibitor control (PIK3CA(M1043I)): 80%; % binding compared to no inhibitor control (MELK): 87%; % binding compared to no inhibitor control (ERBB4): 90%; % binding compared to no inhibitor control (BTK): 50%; % binding compared to no inhibitor control (PRKG2): 70%; % binding compared to no inhibitor control (PRKCH): 58%; % binding compared to no inhibitor control (PAK7): 72%; % binding compared to no inhibitor control (TNK1): 82%; % binding compared to no inhibitor control [2]: 9.2%; % binding compared to no inhibitor control (CSNK2A2): 54%
2 | COc1ccccc1Nc1nc(-c2ccc(OC)c(OC)c2)cc2nccn12 [BAY derivative 6] | 100% | 61% | 100% | 99% | 100% | 100% | 100% | 98% | 90% | 100% | 100% | 100% | 100% | 93% | 100% | 100% | 98% | 97% | 94% | 97% | % binding compared to no inhibitor control (PIK3CG): 100%; % binding compared to no inhibitor control (SBK1): 100%; % binding compared to no inhibitor control (RIOK1): 95%; % binding compared to no inhibitor control (EPHB6): 56%; % binding compared to no inhibitor control (ULK1): 100%; % binding compared to no inhibitor control (ARK5): 93%; % binding compared to no inhibitor control (CAMK1D): 100%; % binding compared to no inhibitor control (ASK1): 100%; % binding compared to no inhibitor control (p38-alpha): 95%; % binding compared to no inhibitor control (PIK3CA(M1043I)): 100%; % binding compared to no inhibitor control (MELK): 91%; % binding compared to no inhibitor control (ERBB4): 100%; % binding compared to no inhibitor control (BTK): 60%; % binding compared to no inhibitor control (PRKG2): 100%; % binding compared to no inhibitor control (PRKCH): 100%; % binding compared to no inhibitor control (PAK7): 98%; % binding compared to no inhibitor control (TNK1): 56%; % binding compared to no inhibitor control [2]: 37%; % binding compared to no inhibitor control (CSNK2A2): 100%
